Laboratory results: ChEMBL document CHEMBL1201862, “PubChem BioAssay data set” (2004)
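Exposure lasted 48 hours, with cells grown in 96-well plates and compounds tested at five concentrations. Here, GI50 denotes the concentration required for 50% inhibition of growth.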 Active and inactive are the calls of the source. Cut-off read from the data, not from the text of the source: active = GI50 up to about 1.1 µM and inactive = higher.

Legend:
Assay in all cases: NCI tumour cell line growth inhibition, 48 h
[1] = test system: 786-0
[2] = test system: CAKI-1
[3] = test system: CCRF-CEM
[4] = test system: HCT-15
[5] = test system: HL-60
[6] = test system: HOP-62
[7] = test system: HOP-92
[8] = test system: Hs-578T
[9] = test system: MDA-MB-231
[10] = test system: NCI-H522
[11] = test system: OVCAR-5
[12] = test system: PC-3
[13] = test system: SF-268
[14] = test system: SK-MEL-2
[15] = test system: SN12C
[16] = test system: SNB-19
[17] = test system: SNB-75
[18] = test system: T47D
[19] = test system: TK-10
[20] = test system: UACC-62

Row | Structure (SMILES) | GI50 [1] | GI50 [2] | GI50 [3] | GI50 [4] | GI50 [5] | GI50 [6] | GI50 [7] | GI50 [8] | GI50 [9] | GI50 [10] | GI50 [11] | GI50 [12] | GI50 [13] | GI50 [14] | GI50 [15] | GI50 [16] | GI50 [17] | GI50 [18] | GI50 [19] | GI50 [20]
1 | CCc1nnc(S)n1/N=C\c1ccc(-c2ccccc2Cl)o1 | 30.8 µM (inactive) | 45.3 µM (inactive) | 27.5 µM (inactive) | 28.2 µM | 20.4 µM (inactive) | 90.2 µM (inactive) | 33.2 µM (inactive) | 57 µM (inactive) | 42.2 µM (inactive) | 24.1 µM (inactive) | 64.6 µM (inactive) | 37.4 µM (inactive) | 32.1 µM (inactive) | 30.8 µM (inactive) | 37.2 µM (inactive) | 45.3 µM (inactive) | 28.2 µM (inactive) | 25.1 µM (inactive) | 43.7 µM (inactive) | 40.6 µM (inactive)
2 | O=C1OC(c2ccccc2)=N/C1=C\c1ccc([N+](=O)[O-])cc1 | 26.9 µM (inactive) | 30.7 µM (inactive) | 13.8 µM (inactive) | > 100 µM | 24.4 µM (inactive) | 30.1 µM (inactive) | 16.1 µM (inactive) | 24.1 µM (inactive) | 44.6 µM (inactive) | 9.57 µM (inactive) | > 100 µM (inactive) | > 100 µM (inactive) | 32.8 µM (inactive) | 27.4 µM (inactive) | > 100 µM (inactive) | 40.6 µM (inactive) | 22.9 µM (inactive) | 22.3 µM (inactive) | 28.8 µM (inactive) | 26.5 µM (inactive)
3 | CCCCCC(O)C1C(=O)OC(C)C(O)/C=C/C=C/C=C/C=C\C=C(\C)C(O)CC(O)CC(O)CC(O)CC(O)CC(O)CC1O (stereo not given) | > 50 µM (inactive) | > 50 µM (inactive) | > 50 µM (inactive) | > 50 µM | > 50 µM (inactive) | > 50 µM (inactive) | > 50 µM (inactive) | > 50 µM (inactive) | > 50 µM (inactive) | > 50 µM (inactive) | > 50 µM (inactive) | > 50 µM (inactive) | > 50 µM (inactive) | > 50 µM (inactive) | > 50 µM (inactive) | > 50 µM (inactive) | > 50 µM (inactive) | > 50 µM (inactive) | > 50 µM (inactive) | > 50 µM (inactive)
4 | c1cc(CSP234N5CCN2CCN3CCN4CC5)ccc1CSP123N4CCN1CCN2CCN3CC4 | > 100 µM (inactive) | > 100 µM (inactive) | 27.4 µM (inactive) | > 100 µM | 0.465 µM (active) | > 100 µM (inactive) | 92.3 µM (inactive) | > 100 µM (inactive) | 62.7 µM (inactive) | 52 µM (inactive) | > 100 µM (inactive) | > 100 µM (inactive) | > 100 µM (inactive) | > 100 µM (inactive) | > 100 µM (inactive) | > 100 µM (inactive) | > 100 µM (inactive) | > 100 µM (inactive) | > 100 µM (inactive) | > 100 µM (inactive)
5 | CCOC(=O)/C(C(=O)NC(C)C)=C(/N)N1CCOCC1 | > 100 µM (inactive) | > 100 µM (inactive) | > 100 µM (inactive) | > 100 µM | > 100 µM (inactive) | > 100 µM (inactive) | > 100 µM (inactive) | > 100 µM (inactive) | > 100 µM (inactive) | > 100 µM (inactive) | > 100 µM (inactive) | > 100 µM (inactive) | > 100 µM (inactive) | > 100 µM (inactive) | > 100 µM (inactive) | > 100 µM (inactive) | > 100 µM (inactive) | > 100 µM (inactive) | > 100 µM (inactive) | > 100 µM (inactive)
6 | CCOC(NC(=O)CC)(C(F)(F)F)C(F)(F)F | > 100 µM (inactive) | > 100 µM (inactive) | > 100 µM (inactive) | > 100 µM | > 100 µM (inactive) | > 100 µM (inactive) | > 100 µM (inactive) | > 100 µM (inactive) | > 100 µM (inactive) | > 100 µM (inactive) | > 100 µM (inactive) | > 100 µM (inactive) | > 100 µM (inactive) | > 100 µM (inactive) | > 100 µM (inactive) | > 100 µM (inactive) | > 100 µM (inactive) | > 100 µM (inactive) | > 100 µM (inactive) | > 100 µM (inactive)
7 | CC1=C/C(=N\NC(N)=S)C(C(O)(C(F)(F)F)C(F)(F)F)C(C)(C)C1 (stereo not given) | > 10 µM (inactive) | > 10 µM (inactive) | > 10 µM (inactive) | > 10 µM | > 10 µM (inactive) | > 10 µM (inactive) | > 10 µM (inactive) | > 10 µM (inactive) | > 10 µM (inactive) | > 10 µM (inactive) | > 10 µM (inactive) | > 10 µM (inactive) | > 10 µM (inactive) | > 10 µM (inactive) | > 10 µM (inactive) | > 10 µM (inactive) | > 10 µM (inactive) | > 10 µM (inactive) | > 10 µM (inactive) | > 10 µM (inactive)
8 | O=C(NC(OCc1ccccc1)(C(F)(F)F)C(F)(F)F)OCc1ccccc1 | 16.5 µM (inactive) | 14.4 µM (inactive) | 16.1 µM (inactive) | 13.8 µM | 17.1 µM (inactive) | 15.1 µM (inactive) | 14.7 µM (inactive) | 13.9 µM (inactive) | 17.7 µM (inactive) | 13.6 µM (inactive) | 14.3 µM (inactive) | 13.8 µM (inactive) | 18.2 µM (inactive) | 15.3 µM (inactive) | 15.9 µM (inactive) | 15.8 µM (inactive) | 15.6 µM (inactive) | 15.7 µM (inactive) | 7.8 µM (inactive) | 13.9 µM (inactive)
9 | CN1C(=O)c2ccccc2OC12C=Cc1c(ccc3ccccc13)O2 (stereo not given) | 7.19 µM (inactive) | 5.66 µM (inactive) | 3.83 µM (inactive) | 2.95 µM | 2.99 µM (inactive) | 4.29 µM (inactive) | 1.85 µM (inactive) | 3.85 µM (inactive) | 13.1 µM (inactive) | 0.682 µM (active) | 6.47 µM (inactive) | 3.27 µM (inactive) | 3.78 µM (inactive) | 3.34 µM (inactive) | 15.2 µM (inactive) | 4.49 µM (inactive) | 4.84 µM (inactive) | 5.43 µM (inactive) | 7.82 µM (inactive) | 5.19 µM (inactive)
10 | CN(C)CCCNc1ccc2ncn3c4ccc(O)cc4c(=O)c1c23 | 0.692 µM (active) | 0.195 µM (active) | 0.218 µM (active) | 1.91 µM | 0.277 µM (active) | 0.538 µM (active) | 0.705 µM (active) | 0.541 µM (active) | 7.46 µM (inactive) | 0.252 µM (active) | 3.03 µM (inactive) | 1.83 µM (inactive) | 0.957 µM (active) | 6.21 µM (inactive) | 0.5 µM (active) | 1.24 µM (inactive) | 0.601 µM (active) | 12 µM (inactive) | 1.76 µM (inactive) | 1.2 µM (inactive)
11 | Nc1ncnc2c1ncn2C1OC(C(=O)OCCO)C(O)C1O (stereo not given) | > 100 µM (inactive) | > 100 µM (inactive) | > 100 µM (inactive) | > 100 µM | > 100 µM (inactive) | > 100 µM (inactive) | > 100 µM (inactive) | > 100 µM (inactive) | > 100 µM (inactive) | > 100 µM (inactive) | > 100 µM (inactive) | > 100 µM (inactive) | > 100 µM (inactive) | > 100 µM (inactive) | > 100 µM (inactive) | > 100 µM (inactive) | > 100 µM (inactive) | > 100 µM (inactive) | > 100 µM (inactive) | > 100 µM (inactive)
12 | C=C1C[C@@H]2CC[C@@]34CC5O[C@H]6C(O[C@H]7CC[C@H](CC(=O)O[C@@H]8[C@@H](C)[C@@H]9O[C@@H]%10C[C@]%11(C[C@@H]%12O[C@]%13(C[C@H](C)[C@@H]%14O[C@@H]%15CC(C(O)CO)O[C@@H]%15C[C@@H]%14O%13)C[C@H](C)[C@@H]%12O%11)O[C@@H]%10C[C@@H]9O[C@H]8CC8O[C@@H](CC[C@@H]1O2)C[C@@H](C)C8(O)CO)O[C@@H]7[C@@H]6O3)[C@H]5O4 (stereo not given in full) | 0.804 µM (active) | > 1 µM (active) | > 1 µM (active) | > 0.638 µM | > 1 µM (active) | > 1 µM (active) | > 0.615 µM (active) | 0.0627 µM (active) | > 1 µM (active) | 0.184 µM (active) | > 1 µM (active) | 0.995 µM (active) | > 1 µM (active) | > 0.859 µM (active) | > 1 µM (active) | > 1 µM (active) | 0.294 µM (active) | > 1 µM (active) | > 0.45 µM (active) | 0.481 µM (active)
